Legend:
[1] = test system: advanced malignant melanoma or renal cell carcinoma; settings: cited from earlier work
EMT-6 xenografts = experiment: Mouse PK/Efficacy model from EMT-6 xenograft efficacy results; type: in vivo
Procedure: Experiments were also conducted to determine the efficacy of the anti-PD-L1/TGFβ Trap molecule in a tumor model. Efficacy results from EMT-6 xenografts were used to establish the PK/Efficacy model.
The model predictions are able to capture the tumor volume distributions. Conditional weighted residuals are normally distributed with a 0 mean and 1 variance without a trend. The PK/Efficacy model was then used to simulate tumor growth inhibition (TGI) using the human predicted concentration-time profiles at different doses.

mouse tumor models = experiment: Antitumor activity in mouse tumor models; type: in vivo
advanced NSCLC = experiment: Clinical study in 2L NSCLC, q2w dosing: response per RECIST v1.1; type: in vivo, human
[2] = test system: PD-L1 and TGFβ dependent signaling; experiment: Inhibition of PD-L1 and TGFβ dependent signaling in vitro; type: cell-based
PD-L1 and TGFβ = experiment: Two-step ELISA, simultaneous binding
melanoma = settings: Phase I; cited from earlier work
TGFβ1 = TGFβ1 (Homo sapiens, UniProt P01137); settings: binding of TGFβ1; cited from earlier work
[3] = test system: scarring after eye surgery; settings: Phase 3; cited from earlier work
[4] = PK/Efficacy model parameter estimate, EMT-6 xenograft mice
[5] = PD-L1 high (≥80%) pts, 500 mg q2w
[6] = PD-L1 high (≥80%) pts, 1200 mg q2w

Sequence of TGFβ1 (P01137 279-390 limits assumed, species assumed): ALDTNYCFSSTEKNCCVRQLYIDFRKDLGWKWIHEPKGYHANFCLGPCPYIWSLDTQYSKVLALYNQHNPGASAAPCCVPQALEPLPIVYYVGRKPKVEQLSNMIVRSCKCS

In the case of “GC1008: a human antibody specific for all isoforms of TGFβ”, the clinical efficacy ([1]; Phase I/II, patients) is listed as “only limited clinical efficacy” and the safety ([1]; in vivo) is listed as “safe and well tolerated”.

For “anti-PD-L1/TGFβ Trap: bi-functional fusion protein: anti-PD-L1 antibody heavy chains fused via glycine-serine linker to extracellular domain of human TGFβRII; SEQ ID NO: 3 and 1”, the KC50 (EMT-6 xenografts; [4]) was 55324.6 ng/mL, the Kmax (EMT-6 xenografts; [4]) was 2 and the “KC50 (average plasma concentration for 50% of the maximal anti-tumor activity)” value (EMT-6 xenografts; estimated, EMT-6 xenografts) was 55.3 µg/mL. For the same molecule, the “antitumor activity and survival versus anti PD-L1 antibody avelumab or TGFβ Trap control alone” value (mouse tumor models; mouse tumor models, preclinical data) was “strongly enhances antitumor activity and prolongs survival”, the antitumor activity (mouse tumor models; variety of mouse models) was “potent antitumor activity” and the “ORR, %” value (advanced NSCLC; All patients, 500 mg q2w) was 20.0%. The “ORR, n (responders/patients)” value (advanced NSCLC; All patients, 500 mg q2w) was 8/40, the “ORR, %” value (advanced NSCLC; All patients, 1200 mg q2w) was 27.5% and the “ORR, n (responders/patients)” value (advanced NSCLC; All patients, 1200 mg q2w) was 11/40. For the same molecule, the “ORR, n (responders/patients)” value (advanced NSCLC; All patients, Total) was 19/80, the “ORR, %” value (advanced NSCLC; All patients, Total (both doses)) was 23.8% and the “ORR, %” value (advanced NSCLC; PD-L1+ (≥1%) pts, 500 mg q2w) was 19.4%. The “ORR, n (responders/patients)” value (advanced NSCLC; PD-L1+ (≥1%) pts, 500 mg q2w) was 6/31, the “ORR, %” value (advanced NSCLC; PD-L1+ (≥1%) pts, 1200 mg q2w) was 40.7% and the “ORR, n (responders/patients)” value (advanced NSCLC; PD-L1+ (≥1%) pts, 1200 mg q2w) was 11/27. The “ORR, %” value (advanced NSCLC; PD-L1+ (≥1%) pts, Total) was 29.3%, the “ORR, n (responders/patients)” value (advanced NSCLC; PD-L1+ (≥1%) pts, Total) was 17/58 and the “ORR, %” value (advanced NSCLC; [5]) was 33.3%. The “ORR, n (responders/patients)” value (advanced NSCLC; [5]) was 2/6, the “ORR, %” value (advanced NSCLC; [6]) was 85.7% and the “ORR, n (responders/patients)” value (advanced NSCLC; [6]) was 6/7. For the same molecule, the “ORR, %” value (advanced NSCLC; PD-L1 high (≥80%) pts, Total) was 62.0%, the “ORR, n (responders/patients)” value (advanced NSCLC; PD-L1 high (≥80%) pts, Total) was 8/13 and the “partial responses (PR)” value (advanced NSCLC; across both dose levels (500 mg and 1200 mg q2w), 80 patients) was 18. The “complete response (CR)” value (advanced NSCLC; at 1200 mg q2w) was 1, the “PD-L1 and TGFβ dependent signaling” value [2] was “inhibited” and the “simultaneous binding to PD-L1 and TGFβ” value (PD-L1 and TGFβ; FIG. 2) was “simultaneously binds to both PD-L1 and TGFβ”. For the same molecule, the “simultaneous binding to PD-L1 and TGFβ” value (PD-L1 and TGFβ; FIG. 2, listed as protein of the present disclosure) was “simultaneously bound to both PD-L1 and TGFβ”.

In the case of “fresolimumab: monoclonal antibody targeting TGFβ1, 2 and 3”, the tumor response (melanoma) is listed as “initial evidence of tumor response”.

B1: recombinant soluble TGFβRII: recombinant soluble extracellular domain of TGFβRII (protein, UniProt P37173 23-166, looked up)
extracellular domain: TIPPHVQKSVNNDMIVTDNNGAVKFPQLCKFCDVRFSTCDNQKSCMSNCSITSICEKPQEVCVAVWRKNDENITLETVCHDPKLPYHDFILEDAASPKCIMKEKKKPGETFFMCSCSSDECNDNIIFSEEYNTSNPDLLLVIFQ
modifications: extracellular domain
In the case of B1, the Kd (TGFβ1) is listed as 0.2 nM.

B2: Lerdelimumab: an antibody specific for TGFβ2 (antibody, chains of the INN, looked up, V domains shown)
VH: EVQLVESGGGVVQPGRSLRLSCAASGFTFSSYGMHWVRQAPGKGLEWVAVIWYDGSNKYYADSVKGRFTISRDNSKNTLYLQMDSLRAEDTAVYYCGRTLESSLWGQGTLVTVSS
VL: SSELTQDPAVSVALGQTVRITCQGDSLRSYYASWYQQKPGQAPVLVIYGKNNRPSGIPDRFSGSSSGNTASLTITGAQAEDEADYYCNSRDSSSTHRGVFGGGTKLTVL
For B2, the “safety and efficacy at improving scarring” value [3] is given as “safe but ineffective”.

— patent publication US20210115145A1, “COMBINATION THERAPY WITH TARGETED TGF-B INHIBITION FOR TREATMENT OF ADVANCED NON-SMALL CELL LUNG CANCER” (Merck Patent GmbH, priority 2018, published 2021)
